{"source": "patent US11261429B2", "about": "“Enriched and expanded human cord blood stem cells for treatment of hematological disorders” (ICAHN SCHOOL OF MEDICINE AT MOUNT SINAI, priority 2013, dated 2022)", "type_in_all_cases": "cell-based, human", "key": {"HDAC6": {"tested_on": "HDAC6", "assay": "HDAC protein levels in CB-MNCs, Western blot densitometry", "conditions": "24 hr, SCR 8 μM, C433 80 μM, VPA 1.25 mM", "excerpt": "(§1) Cellular proteins were separated by SDS-PAGE using Novex (Invitrogen) and transferred by iBlot (Invitrogen). The membranes were probed with mAbs against individual histone deacetylases (HDAC1, HDAC2, HDAC3, HDAC4, HDAC5, HDAC6, and β-actin; Cell Signaling Technology) and developed using a chemiluminescence system with HRP-conjugated secondary antibodies (Amersham Biosciences) according to the manufacturer's instructions."}, "HDAC3": {"tested_on": "HDAC3", "assay": "HDAC protein levels in CB-MNCs, Western blot densitometry", "conditions": "24 hr, SCR 8 μM, C433 80 μM, VPA 1.25 mM", "excerpt": "as §1"}, "HDAC1": {"tested_on": "HDAC1", "assay": "HDAC protein levels in CB-MNCs, Western blot densitometry", "conditions": "24 hr, SCR 8 μM, C433 80 μM, VPA 1.25 mM"}, "HDAC5": {"tested_on": "HDAC5", "assay": "HDAC protein levels in CB-MNCs, Western blot densitometry", "conditions": "24 hr, SCR 8 μM, C433 80 μM, VPA 1.25 mM", "excerpt": "as §1"}, "class I and II HDAC": {"tested_on": "class I and II HDAC", "assay": "HDAC protein levels in CB-MNCs, Western blot, all HDACs examined", "conditions": "after 2 hours of treatment", "excerpt": "as §1"}, "CB CD34+ cells": {"tested_on": "CB CD34+ cells", "assay": "Ex vivo expansion of CB CD34+ cells with HDACIs, phenotypic analysis by flow cytometry", "conditions": "7 days of culture with cytokines plus HDACI", "source_text": "CB collections were purchased from the Placental Blood Program at the New York Blood Center. CB-MNCs were isolated by Ficoll-Hypaque density centrifugation, and CD34+ cells were purified by immunotnagnetic selection as previously described (Chaurasia et al., “Chromatin-Modifying Agents Promote the Ex vivo Production of Functional Human Erythroid Progenitor Cells,” Blood 117:4632-4641 (2011), which is hereby incorporated by reference in its entirety). Highly purified (90%-98%) PCs (4.0-5.0×10^4) were cultured in SF Stemline II (Sigma-Aldrich) culture medium or IMDM (Lonza) containing 30% FBS (HyClone Laboratories) supplemented with 150 ng/ml SCF, 100 ng/ml fms-like tyrosine kinase receptor 3 (FLT3 ligand), 100 ng/ml thrombopoietin (TPO), and 50 ng/ml interleukin 3 (IL-3) (R&D Systems) and incubated in a humidified incubator maintained at 37° C. with 5% CO2. […] The cell populations studied and the various conditions under which they were cultured are referred to by specific terms listed in Table 1. Viable PC and cultured cells were enumerated using the trypan blue exclusion method. The fold expansion of CD34+ cells or subpopulations was calculated based on the number of CD34+ cells determined to be present in an individual CB collection and the number of CD34+ cells that would have been generated if all of the CD34+ cells within that primary CB collection were cultured using the various culture conditions described. PC or cultured cells expanded in the presence or absence of HDACIs were stained with an anti-human CD34 mAb or an isotype-matched control mAb and analyzed using a FACSCanto II (BD). CD34+ cells were re-isolated using a CD34+ cell isolation kit, as previously described, for further phenotypic and functional analyses. All mAbs were purchased from BD Biosciences and Cell Signaling Technology. Phenotypic analyses ([…], […], and […]7) of the ex vivo-expanded cells after 7 days in control cultures or cytokines plus an HDACI were performed as previously described (Chaurasia et al., “Chromatin-Modifying Agents Promote the Ex vivo Production of Functional Human Erythroid Progenitor Cells,” Blood 117:4632-4641 (2011), which is hereby incorporated by reference in its entirety)."}, "HDAC2": {"tested_on": "HDAC2", "assay": "HDAC protein levels in CB-MNCs, Western blot densitometry", "conditions": "24 hr, SCR 8 μM, C433 80 μM, VPA 1.25 mM"}, "HDAC4": {"tested_on": "HDAC4", "assay": "HDAC protein levels in CB-MNCs, Western blot densitometry", "conditions": "24 hr, SCR 8 μM, C433 80 μM, VPA 1.25 mM", "excerpt": "as §1"}}}
{"smiles": "Nc1ccccc1NC(=O)CCCCCCC(=O)Nc1ccccc1", "note": "[C433, CAY10433]", "values": [{"measurement": "HDAC6 expression relative to b-ACTIN (%)", "setting": "HDAC6", "result": "35.8 ± 7.2", "unit": "%"}, {"measurement": "HDAC3 expression relative to b-ACTIN (%)", "setting": "HDAC3", "result": "28.0 ± 20.0", "unit": "%"}, {"measurement": "HDAC1 expression relative to b-ACTIN (%)", "setting": "HDAC1", "result": "24.3 ± 0.4", "unit": "%"}, {"measurement": "HDAC5 expression relative to b-ACTIN (%)", "setting": "HDAC5", "result": "12.6 ± 1.9", "unit": "%"}, {"measurement": "inhibition of HDAC expression", "setting": "class I and II HDAC", "result": "did not inhibit HDAC expression"}, {"measurement": "percentage of CD34+CD90+ cells", "setting": "CB CD34+ cells", "result": "70.1%±18.4%"}, {"measurement": "HDAC2 expression relative to b-ACTIN (%)", "setting": "HDAC2", "result": "40.0 ± 8.0", "unit": "%"}, {"measurement": "HDAC4 expression relative to b-ACTIN (%)", "setting": "HDAC4", "result": "23.5 ± 16.5", "unit": "%"}]}
{"smiles": "O=C(CCCCCN1C(=O)c2cccc3cccc(c23)C1=O)NO", "note": "[SCR, Scriptaid]", "values": [{"measurement": "inhibition of HDAC expression", "setting": "class I and II HDAC", "result": "did not inhibit HDAC expression"}, {"measurement": "percentage of CD34+CD90+ cells", "setting": "CB CD34+ cells", "result": "73.4%±13.9%"}]}
